Measurements taken from patent US6737383B1, “Herbicidal oxadiazolidines” (priority 1999, dated 2004).

Columns and labels:
bedstraw = assay: Test B pre/postemergence bedstraw; assay type: in vivo, Galium aparine
Summary of the method: (§1)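 Test chemicals in a non-phytotoxic solvent mixture with surfactant were sprayed preemergence onto planted seeds and postemergence onto plants 2 to 18 cm tall (1- to 4-leaf stage). After twelve to sixteen days in a greenhouse, injury was visually rated against untreated controls from 0 (no effect) to 10 (complete control).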

rice = assay: Test B flood test rice; assay type: in vivo, Oryza sativa
Summary of the method: (§2)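 Plants were grown to the 2-leaf stage before treatment with test chemical, then held in a greenhouse for twelve to sixteen days. Injury was visually rated against untreated controls on a 0–10 scale, where 0 is no effect and 10 is complete control.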

wheat = assay: Test B pre/postemergence wheat; assay type: in vivo, Triticum aestivum
Summary of the method: as §1

duck salad = assay: Test B flood test duck salad; assay type: in vivo, Heteranthera limosa
Summary of the method: as §2

[1] = Preemergence, Rate 62 g/ha, scale of 0 to 10 where 0 is no effect and 10 is complete control
[2] = Preemergence, Rate 250 g/ha, scale 0 to 10, 0 is no effect, 10 is complete control
[3] = Preemergence, Rate 500 g/ha, scale of 0 to 10 where 0 is no effect and 10 is complete control
[4] = Rate 62 g/ha, Postemergence, scale of 0 to 10 where 0 is no effect and 10 is complete control
[5] = Rate 125 g/ha, Postemergence, scale 0 to 10
[6] = Rate 125 g/ha, Preemergence, scale of 0 to 10 where 0 is no effect and 10 is complete control
[7] = Rate 62 g/ha, headed Pre-emergence (flood test species), scale 0 to 10 (0 no effect, 10 complete control)
[8] = Rate 125 g/ha, Pre-emergence, flood test species, scale 0 to 10 where 0 is no effect and 10 is complete control
[9] = Rate 250 g/ha, Pre-emergence, flood-test species, scale 0 to 10, 0 is no effect, 10 is complete control
[10] = Rate 500 g/ha, Pre-emergence, flood test species, scale 0 to 10 (0 no effect, 10 complete control)
[11] = Preemergence, Rate 250 g/ha, scale of 0 to 10 where 0 is no effect and 10 is complete control
[12] = Rate 500 g/ha, Postemergence, scale 0 to 10
[13] = Rate 500 g/ha, Postemergence, scale 0 to 10, 0 no effect, 10 complete control

Row | Compound | Bedstraw plant response rating (bedstraw; [1]) | Plant response rating, Bedstraw (bedstraw; [3]) | Bedstraw plant response rating (bedstraw; [4]) | Bedstraw plant response rating (bedstraw; [5]) | Bedstraw plant response rating (bedstraw; [6]) | Plant response rating (0 to 10; 0 is no effect, 10 is complete control), Bedstraw (bedstraw; Rate 250 g/ha, Postemergence) | Rice plant response rating (rice; [7]) | Rice plant response rating (rice; [8]) | Rice plant response rating (rice; [9]) | Rice plant response rating (rice; [10]) | Wheat plant response rating (wheat; [1]) | Plant response rating, Wheat (wheat; [3]) | Wheat plant response rating (wheat; [4]) | Wheat plant response rating (wheat; [5]) | Wheat plant response rating (wheat; [6]) | Plant response rating (0 to 10; 0 is no effect, 10 is complete control), Wheat (wheat; Rate 250 g/ha, Postemergence) | Ducksalad plant response rating (duck salad; [7]) | Ducksalad plant response rating (duck salad; [8]) | Ducksalad plant response rating (duck salad; [9]) | Ducksalad plant response rating (duck salad; [10]) | also measured
1 | CC(C)N(C(=O)n1oc(=O)n(CC=Cc2ccccc2)c1=O)c1ccc(F)cc1 [Compound 210] | 0 | 0 | 0 | 2 | 0 | 4 | 0 | 0 | 0 | 0 | 0 | 0 | 0 | 0 | 0 | 0 | 0 | 0 | 0 | 0 | Bedstraw plant response rating (bedstraw; [2]): 0; Wheat plant response rating (wheat; [2]): 0
2 | CCOC(=O)C=CCn1c(=O)on(C(=O)N(c2ccc(F)cc2)C(C)C)c1=O [Compound 214] | 0 | 0 | 0 | 0 | 0 | 2 | 0 | 0 | 0 | 0 | 0 | 0 | 0 | 0 | 0 | 3 | 0 | 0 | 0 | 0 | Bedstraw plant response rating (bedstraw; [11]): 0; Bedstraw plant response rating (bedstraw; [12]): 8; Wheat plant response rating (wheat; [11]): 0
3 | COC(=O)Cn1c(=O)on(C(=O)N(c2ccc(F)cc2)C(C)C)c1=O [Compound 215] | 0 | 0 | 0 | 0 | 0 | 6 | 0 | 0 | 0 | 0 | 0 | 0 | 3 | 3 | 0 | 6 | 0 | 0 | 0 | 0 | Bedstraw plant response rating (bedstraw; [11]): 0; Bedstraw plant response rating (bedstraw; [12]): 8; Wheat plant response rating (wheat; [11]): 0
4 | CC(C)N(C(=O)n1oc(=O)n(CC(=O)C(C)(C)C)c1=O)c1ccc(F)cc1 [Compound 216] | 0 | 0 | 0 | 0 | 0 | 2 | 0 | 0 | 0 | 0 | 0 | 0 | 0 | 0 | 0 | 0 | 0 | 0 | 0 | 0 | Bedstraw plant response rating (bedstraw; [11]): 0; Wheat plant response rating (wheat; [11]): 0
5 | CON=C(Cn1c(=O)on(C(=O)N(c2ccc(F)cc2)C(C)C)c1=O)C(F)(F)F [Compound 227] | 0 | 3 | 7 | 8 | 0 | 8 | 0 | 0 | 0 | 0 | 0 | 0 | 0 | 0 | 0 | 3 | 0 | 0 | 0 | 0 | Bedstraw plant response rating (bedstraw; [13]): 8; Wheat plant response rating (wheat; [11]): 0; Wheat plant response rating (wheat; [13]): 5
6 | CCCCc1ccc(N(C(=O)n2oc(=O)n(-c3ccccc3C)c2=O)C(C)C)cc1 [Compound 229] | 0 | 0 | 0 | 0 | 0 | 0 | 0 | 0 | 0 | 0 | 0 | 0 | 0 | 0 | 0 | 0 | 0 | 0 | 0 | 0 | Bedstraw plant response rating (bedstraw; [11]): 0; Bedstraw plant response rating (bedstraw; [13]): 0; Wheat plant response rating (wheat; [11]): 0; Wheat plant response rating (wheat; [13]): 0
7 | CCc1ccc(N(C(=O)n2oc(=O)n(-c3ccccc3C)c2=O)C(C)C)cc1 [Compound 230] | 0 | 0 | 0 | 0 | 0 | 0 | 0 | 0 | 0 | 0 | 0 | 0 | 0 | 0 | 0 | 0 | 0 | 0 | 0 | 0 | Bedstraw plant response rating (bedstraw; [11]): 0; Bedstraw plant response rating (bedstraw; [13]): 0; Wheat plant response rating (wheat; [11]): 0; Wheat plant response rating (wheat; [13]): 0
8 | CC(C)N(C(=O)n1oc(=O)n(-c2cccnc2)c1=O)c1ccc(F)cc1 [Compound 234] | 0 | 0 | 0 | 0 | 0 | 0 | 0 | 0 | 0 | 0 | 0 | 0 | 0 | 0 | 0 | 0 | 0 | 0 | 0 | 0 | Bedstraw plant response rating (bedstraw; [11]): 0; Bedstraw plant response rating (bedstraw; [13]): 0; Wheat plant response rating (wheat; [11]): 0; Wheat plant response rating (wheat; [13]): 0
9 | CC(C)N(C(=O)n1oc(=O)n(-c2cccnc2)c1=O)c1ccccc1 [Compound 235] | 0 | 0 | 0 | 0 | 0 | 0 | 0 | 0 | 0 | 0 | 0 | 0 | 0 | 0 | 0 | 0 | 0 | 0 | 0 | 0 | Bedstraw plant response rating (bedstraw; [11]): 0; Bedstraw plant response rating (bedstraw; [13]): 0; Wheat plant response rating (wheat; [11]): 0; Wheat plant response rating (wheat; [13]): 0
